From ChEMBL document CHEMBL2380212, “Synthesis, single crystal and antitumor activities of benzimidazole-quinazoline hybrids” (Bioorg Med Chem Lett, 2013)

How the values were obtained:
Assay type in all cases: functional
MDA-MB-468 = test: Cytotoxicity against human MDA-MB-468 cells at 10 uM after 48 hrs by SRB assay; details: MDA-MB-468, 48 h, read-out: GI
BT-549 = test: Cytotoxicity against human BT549 cells at 10 uM after 48 hrs by SRB assay; details: BT-549, 48 h, read-out: GI
T47D = test: Cytotoxicity against human T47D cells at 10 uM after 48 hrs by SRB assay; details: read-out: GI
MCF7 = test: Cytotoxicity against human MCF7 cells at 10 uM after 48 hrs by SRB assay; details: MCF7, 48 h, read-out: GI
DU-145 = test: Cytotoxicity against human DU145 cells at 10 uM after 48 hrs by SRB assay; details: DU-145, 48 h, read-out: GI
UO-31 = test: Cytotoxicity against human UO31 cells at 10 uM after 48 hrs by SRB assay; details: UO-31, 48 h, read-out: GI
PC-3 = test: Cytotoxicity against human PC3 cells at 10 uM after 48 hrs by SRB assay; details: PC-3, 48 h, read-out: GI
TK-10 = test: Cytotoxicity against human TK10 cells at 10 uM after 48 hrs by SRB assay; details: TK-10, 48 h, read-out: GI
RXF 393 = test: Cytotoxicity against human RXF393 cells at 10 uM after 48 hrs by SRB assay; details: RXF 393, 48 h, read-out: GI
CAKI-1 = test: Cytotoxicity against human Caki1 cells at 10 uM after 48 hrs by SRB assay; details: CAKI-1, 48 h, read-out: GI
ACHN = test: Cytotoxicity against human ACHN cells at 10 uM after 48 hrs by SRB assay; details: read-out: GI
A498 = test: Cytotoxicity against human A498 cells at 10 uM after 48 hrs by SRB assay; details: A498, 48 h, read-out: GI
786-0 = test: Cytotoxicity against human 786-0 cells at 10 uM after 48 hrs by SRB assay; details: 786-0, 48 h, read-out: GI
NCI/ADR-RES = test: Cytotoxicity against human NCI/ADR-RES cells at 10 uM after 48 hrs by SRB assay; details: read-out: GI
OVCAR-4 = test: Cytotoxicity against human OVCAR4 cells at 10 uM after 48 hrs by SRB assay; details: OVCAR-4, 48 h, read-out: GI
OVCAR-3 = test: Cytotoxicity against human OVCAR3 cells at 10 uM after 48 hrs by SRB assay; details: OVCAR-3, 48 h, read-out: GI
UACC-62 = test: Cytotoxicity against human UACC62 cells at 10 uM after 48 hrs by SRB assay; details: UACC-62, 48 h, read-out: GI
UACC-257 = test: Cytotoxicity against human UACC257 cells at 10 uM after 48 hrs by SRB assay; details: UACC-257, 48 h, read-out: GI
SK-MEL-28 = test: Cytotoxicity against human SK-MEL-28 cells at 10 uM after 48 hrs by SRB assay; details: SK-MEL-28, 48 h, read-out: GI
SK-MEL-5 = test: Cytotoxicity against human SK-MEL-5 cells at 10 uM after 48 hrs by SRB assay; details: SK-MEL-5, 48 h, read-out: GI
SK-MEL-2 = test: Cytotoxicity against human SK-MEL-2 cells at 10 uM after 48 hrs by SRB assay; details: SK-MEL-2, 48 h, read-out: GI
M14 = test: Cytotoxicity against human M14 cells at 10 uM after 48 hrs by SRB assay; details: M14, 48 h, read-out: GI
LOX IMVI = test: Cytotoxicity against human LOXIMVI cells at 10 uM after 48 hrs by SRB assay; details: read-out: GI
SNB-19 = test: Cytotoxicity against human SNB19 cells at 10 uM after 48 hrs by SRB assay; details: SNB-19, 48 h, read-out: GI
SF-295 = test: Cytotoxicity against human SF295 cells at 10 uM after 48 hrs by SRB assay; details: SF-295, 48 h, read-out: GI
SF-539 = test: Cytotoxicity against human SF539 cells at 10 uM after 48 hrs by SRB assay; details: SF-539, 48 h, read-out: GI
SF-268 = test: Cytotoxicity against human SF268 cells at 10 uM after 48 hrs by SRB assay; details: SF-268, 48 h, read-out: GI
SW-620 = test: Cytotoxicity against human SW620 cells at 10 uM after 48 hrs by SRB assay; details: SW-620, 48 h, read-out: GI
HT-29 = test: Cytotoxicity against human HT-29 cells at 10 uM after 48 hrs by SRB assay; details: HT-29, 48 h, read-out: GI
HCT-15 = test: Cytotoxicity against human HCT15 cells at 10 uM after 48 hrs by SRB assay; details: HCT-15, 48 h, read-out: GI
HCT-116 = test: Cytotoxicity against human HCT116 cells at 10 uM after 48 hrs by SRB assay; details: HCT-116, 48 h, read-out: GI
HCC 2998 = test: Cytotoxicity against human HCC2998 cells at 10 uM after 48 hrs by SRB assay; details: HCC 2998, 48 h, read-out: GI
NCI-H522 = test: Cytotoxicity against human NCI-H522 cells at 10 uM after 48 hrs by SRB assay; details: NCI-H522, 48 h, read-out: GI
NCI-H322M = test: Cytotoxicity against human NCI-H322M cells at 10 uM after 48 hrs by SRB assay; details: read-out: GI
NCI-H226 = test: Cytotoxicity against human NCI-H226 cells at 10 uM after 48 hrs by SRB assay; details: NCI-H226, 48 h, read-out: GI
HOP-62 = test: Cytotoxicity against human HOP62 cells at 10 uM after 48 hrs by SRB assay; details: HOP-62, 48 h, read-out: GI
[1] = Cytotoxicity against human EKVX cells at 10 uM after 48 hrs by SRB assay; details: read-out: GI
A549 = test: Cytotoxicity against human A549 cells at 10 uM after 48 hrs by SRB assay; details: A549, 48 h, read-out: GI
SR = test: Cytotoxicity against human SR cells at 10 uM after 48 hrs by SRB assay; details: read-out: GI
MOLT-4 = test: Cytotoxicity against human MOLT4 cells at 10 uM after 48 hrs by SRB assay; details: MOLT-4, 48 h, read-out: GI
RPMI-8226 = test: Cytotoxicity against human RPMI8226 cells at 10 uM after 48 hrs by SRB assay; details: RPMI-8226, 48 h, read-out: GI
HL-60(TB) = test: Cytotoxicity against human HL-60(TB) cells at 10 uM after 48 hrs by SRB assay; details: HL-60, 48 h, read-out: GI

Q: Which results are given for `C=CCn1c(C)nc2ccc(Nc3nc(Cl)nc4ccccc34)cc21`?
A: inhibition of growth at 10 µM (MDA-MB-468): 16.3%; inhibition of growth at 10 µM (BT-549): < 10%; inhibition of growth at 10 µM (T47D): 18.5%; inhibition of growth at 10 µM (MCF7): < 10%; inhibition of growth at 10 µM (DU-145): < 10%; inhibition of growth at 10 µM (UO-31): < 10%; inhibition of growth at 10 µM (PC-3): 18%; inhibition of growth at 10 µM (TK-10): < 10%; inhibition of growth at 10 µM (RXF 393): 12.5%; inhibition of growth at 10 µM (CAKI-1): 12.8%; inhibition of growth at 10 µM (ACHN): < 10%; inhibition of growth at 10 µM (A498): 44.5%; inhibition of growth at 10 µM (786-0): 12.2%; inhibition of growth at 10 µM (NCI/ADR-RES): < 10%; inhibition of growth at 10 µM (OVCAR-4): < 10%; inhibition of growth at 10 µM (OVCAR-3): < 10%; inhibition of growth at 10 µM (UACC-62): < 10%; inhibition of growth at 10 µM (UACC-257): < 10%; inhibition of growth at 10 µM (SK-MEL-28): < 10%; inhibition of growth at 10 µM (SK-MEL-5): < 10%; inhibition of growth at 10 µM (SK-MEL-2): < 10%; inhibition of growth at 10 µM (M14): < 10%; inhibition of growth at 10 µM (LOX IMVI): < 10%; inhibition of growth at 10 µM (SNB-19): < 10%; inhibition of growth at 10 µM (SF-295): 15.2%; inhibition of growth at 10 µM (SF-539): < 10%; inhibition of growth at 10 µM (SF-268): 10.1%; inhibition of growth at 10 µM (SW-620): < 10%; inhibition of growth at 10 µM (HT-29): < 10%; inhibition of growth at 10 µM (HCT-15): < 10%; inhibition of growth at 10 µM (HCT-116): < 10%; inhibition of growth at 10 µM (HCC 2998): < 10%; inhibition of growth at 10 µM (NCI-H522): < 10%; inhibition of growth at 10 µM (NCI-H322M): < 10%; inhibition of growth at 10 µM (NCI-H226): < 10%; inhibition of growth at 10 µM (HOP-62): < 10%; inhibition of growth at 10 µM [1]: < 10%; inhibition of growth at 10 µM (A549): 18.5%; inhibition of growth at 10 µM (SR): < 10%; inhibition of growth at 10 µM (MOLT-4): 21.3%; inhibition of growth at 10 µM (RPMI-8226): 24.7%; inhibition of growth at 10 µM (HL-60(TB)): 15.9%
